Measurements published in publication PMC13395458, “Structural dynamics of IRE1 and its interaction with unfolded peptides” (eLife, 2026).
Where two headings read alike, the source gives them in different places. Ends that are not written are not given here.

What was measured:
[1] = system: hIRE1α; conditions: available binding affinities to hIRE1α; fluorescence anisotropy; ref Karagöz et al., 2017; Kettel et al., 2024; cited from earlier work
Text: page 1: Structural Dynamics of IRE1 and its Interaction with Unfolded Peptides Supplementary File 2 Polypeptide K1/2 [µM] […] References Elif Karag¨oz G, Acosta-Alvear D, Nguyen HT, Lee CP, Chu F, Walter P. An unfolded protein-induced conformational switch activates mammalian IRE1. eLife. 2017;6:e30700. Kettel P, Marosits L, Spinetti E, Rechberger M, Giannini C, Radler P, et al. Disordered regions in the IRE1 ER lumenal domain medi ...

[2] = biological target: T1, hIRE1α LD Y161R (Homo sapiens, UniProt O75460, Y161R); test: Fluorescence anisotropy, binding of labeled MPZ1N-2X to hIRE1α LD Y161R; conditions: 95% confidence interval of KD
T1 construct: His6 (N, cleaved yes); made in house; host or cells: Escherichia coli BL21DE3* RIPL
T1 sequence (O75460 24-443 Y161R): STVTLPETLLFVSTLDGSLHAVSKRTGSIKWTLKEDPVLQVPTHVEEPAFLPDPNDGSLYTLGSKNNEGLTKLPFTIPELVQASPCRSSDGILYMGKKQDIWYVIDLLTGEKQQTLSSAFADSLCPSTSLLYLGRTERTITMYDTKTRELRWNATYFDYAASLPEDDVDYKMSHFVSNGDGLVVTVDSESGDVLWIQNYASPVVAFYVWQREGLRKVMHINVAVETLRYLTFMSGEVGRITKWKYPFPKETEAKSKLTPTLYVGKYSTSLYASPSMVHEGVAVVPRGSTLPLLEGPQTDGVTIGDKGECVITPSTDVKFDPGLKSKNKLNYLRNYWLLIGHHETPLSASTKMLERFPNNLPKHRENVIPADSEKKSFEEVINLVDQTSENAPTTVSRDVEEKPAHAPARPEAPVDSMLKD
Method: (§1) To express hIRE1α LD (24–443) human cDNA sequences were cloned into pET47b(+) to create a coding sequence with N-terminal His6-tag. Mutations of hIRE1α LD were introduced by overlap extension PCR and restriction cloning into pET47b(+). For expression of the proteins, the plasmid of interest was transformed into Escherichia coli strain BL21DE3* RIPL (Agilent Technologies). Cells were grown in Luria Broth until OD600 = 0.6–0.8. Protein expression was induced with 0.6 mM IPTG, and cells were grown in 20°C overnight. For purification, cells after harvesting were resuspended in Lysis Buffer (50 mM HEPES pH 7.2, 400 mM NaCl, 20 mM imidazole, 5% glycerol, 5 mM β -mercaptoethanol) and were lysed in Constans Systems cell disruptor at 25,000 psi. […] Protein concentrations were determined using the extinction coefficient at 280 nm predicted by the Expasy ProtParam tool (http://web.expasy.org/protparam/).
(§2) For fluorescence anisotropy measurements, the MPZ1-N-2X peptide attached to 5 carboxyfluorescein (5-FAM) at its N-terminus was obtained from GenScript at >95% purity. Binding affinities of hIRE1α LD mutants to FAM-labeled peptides were determined by measuring the change in fluorescence anisotropy on a Tecan CM Spark Micro Plate Reader with excitation at 485 nm and emission at 525 nm with increasing concentrations of hIRE1α LD variants. […]

[3] = biological target: T2, hIRE1α LD wild-type (Homo sapiens, UniProt O75460); test: Fluorescence anisotropy, binding of labeled MPZ1N-2X to hIRE1α LD WT
T2 construct: His6 (N, cleaved yes); made in house; host or cells: Escherichia coli BL21DE3* RIPL
T2 sequence (O75460 24-443): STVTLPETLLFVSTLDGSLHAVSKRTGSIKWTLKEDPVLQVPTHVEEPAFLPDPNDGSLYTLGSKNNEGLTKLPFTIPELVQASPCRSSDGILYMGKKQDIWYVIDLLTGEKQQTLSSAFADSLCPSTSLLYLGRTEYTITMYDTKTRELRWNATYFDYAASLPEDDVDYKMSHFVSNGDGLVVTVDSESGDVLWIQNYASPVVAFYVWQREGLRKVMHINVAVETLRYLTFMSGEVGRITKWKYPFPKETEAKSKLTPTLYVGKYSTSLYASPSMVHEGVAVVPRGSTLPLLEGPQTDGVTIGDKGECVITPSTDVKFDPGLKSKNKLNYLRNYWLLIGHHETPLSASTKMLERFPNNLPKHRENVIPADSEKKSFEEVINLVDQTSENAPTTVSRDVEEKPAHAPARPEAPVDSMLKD
Method: as §1, §2

[4] = biological target: T3, hIRE1α LD E102R (Homo sapiens, UniProt O75460, E102R); test: Fluorescence anisotropy, binding of labeled MPZ1N-2X to hIRE1α LD E102R
T3 construct: His6 (N, cleaved yes); made in house; host or cells: Escherichia coli BL21DE3* RIPL
T3 sequence (O75460 24-443 E102R): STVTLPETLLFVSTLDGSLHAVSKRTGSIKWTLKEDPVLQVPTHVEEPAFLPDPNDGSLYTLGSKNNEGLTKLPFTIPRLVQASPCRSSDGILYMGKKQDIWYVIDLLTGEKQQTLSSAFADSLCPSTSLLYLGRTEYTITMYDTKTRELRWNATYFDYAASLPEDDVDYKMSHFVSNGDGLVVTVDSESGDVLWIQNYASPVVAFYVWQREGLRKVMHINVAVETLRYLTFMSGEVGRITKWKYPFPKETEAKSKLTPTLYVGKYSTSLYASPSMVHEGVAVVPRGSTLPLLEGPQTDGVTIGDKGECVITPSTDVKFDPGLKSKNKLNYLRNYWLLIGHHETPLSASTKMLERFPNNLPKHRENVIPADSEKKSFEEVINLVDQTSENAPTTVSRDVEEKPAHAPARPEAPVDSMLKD
Method: as §1, §2

[5] = biological target: T4, MPZ1N-2X peptide, 5-FAM labelled (5 carboxyfluorescein (5-FAM) at its N-terminus); test: fluorescence polarisation; fluorescence anisotropy; 90 nM 5-FAM-labelled peptide with increasing concentrations of hIRE1α LD variants; 25 mM HEPES pH 7.2, 150 mM NaCl, 2 mM DTT, 0.025% Tween 20; 30 min at 25°C; Hill fit, apparent K1/2 (does not reflect the dissociation constant); conditions: both partners purified
T4 construct: model unfolded peptide derived from Myelin Protein Zero (MPZ); not a plain stretch of the natural protein; source: synthetic peptide; bought: GenScript (>95% purity)
T4 peptide: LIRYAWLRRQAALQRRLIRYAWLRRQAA

[6] = 95% confidence interval of KD, read-out: KD 95% confidence interval

Molecule: LIDYAWLDDQAALQDDLIDYAWLDDQAA [MPZ1N-2X-RD, MPZ1N-2X with all the arginines mutated to aspartic acid]
- K1/2 [1]: binding impaired

Molecule: LIRYAWLRRQAA [MPZ1-N, unfolded peptide derived from Myelin Protein Zero, …]
- K1/2 [1]: 16 µM

Molecule: LIRYAWLRRQAALQRRLIRYAWLRRQAA [MPZ1N-2X]
- Kd [2]: 4.3 to 7.1 µM
- Kd [3, 6]: 1810 to 2530 nM
- Kd ([3]; fluorescence anisotropy, 5-FAM-labeled peptide 90 nM, pH 7.2, 30 min, 25°C, R2 0.9918, read-out: KD): 2140 nM
- Kd [4, 6]: 5.84 to 6.96 µM
- Kd ([4]; fluorescence anisotropy, 5-FAM-labeled peptide 90 nM, pH 7.2, 30 min, 25°C, R2 0.9992, read-out: KD): 6.35 µM

Molecule: LQRRISAME [MPZ1-C, peptide derived from Myelin Protein Zero, …]
- K1/2 [1]: 572 µM

B1: human IRE1α luminal domain (hIRE1α LD, 24–443), wild type (domain or fragment, UniProt O75460 24-443, looked up)
chain: STVTLPETLLFVSTLDGSLHAVSKRTGSIKWTLKEDPVLQVPTHVEEPAFLPDPNDGSLYTLGSKNNEGLTKLPFTIPELVQASPCRSSDGILYMGKKQDIWYVIDLLTGEKQQTLSSAFADSLCPSTSLLYLGRTEYTITMYDTKTRELRWNATYFDYAASLPEDDVDYKMSHFVSNGDGLVVTVDSESGDVLWIQNYASPVVAFYVWQREGLRKVMHINVAVETLRYLTFMSGEVGRITKWKYPFPKETEAKSKLTPTLYVGKYSTSLYASPSMVHEGVAVVPRGSTLPLLEGPQTDGVTIGDKGECVITPSTDVKFDPGLKSKNKLNYLRNYWLLIGHHETPLSASTKMLERFPNNLPKHRENVIPADSEKKSFEEVINLVDQTSENAPTTVSRDVEEKPAHAPARPEAPVDSMLKD
notes: Inositol-requiring enzyme 1 alpha (IRE1α), human, luminal domain, residues 24-443, cloned from human cDNA into pET47b(+); also called hIRE1α LD WT; WT; source: E. coli BL21DE3* RIPL, purified (Ni-NTA, HiTRAP-Q, Superdex 200); not shown: His6, N-terminal, cleaved
- K1/2 (apparent) [5]: 2.14 µM

B2: human IRE1α luminal domain (hIRE1α LD, 24–443) E102R (domain or fragment, UniProt O75460 24-443, looked up)
chain: STVTLPETLLFVSTLDGSLHAVSKRTGSIKWTLKEDPVLQVPTHVEEPAFLPDPNDGSLYTLGSKNNEGLTKLPFTIPRLVQASPCRSSDGILYMGKKQDIWYVIDLLTGEKQQTLSSAFADSLCPSTSLLYLGRTEYTITMYDTKTRELRWNATYFDYAASLPEDDVDYKMSHFVSNGDGLVVTVDSESGDVLWIQNYASPVVAFYVWQREGLRKVMHINVAVETLRYLTFMSGEVGRITKWKYPFPKETEAKSKLTPTLYVGKYSTSLYASPSMVHEGVAVVPRGSTLPLLEGPQTDGVTIGDKGECVITPSTDVKFDPGLKSKNKLNYLRNYWLLIGHHETPLSASTKMLERFPNNLPKHRENVIPADSEKKSFEEVINLVDQTSENAPTTVSRDVEEKPAHAPARPEAPVDSMLKD
notes: Inositol-requiring enzyme 1 alpha (IRE1α), human, luminal domain, residues 24-443, with E102R introduced by overlap extension PCR; source: E. coli BL21DE3* RIPL, purified (Ni-NTA, HiTRAP-Q, Superdex 200); not shown: His6, N-terminal, cleaved
- K1/2 (apparent) [5]: 6.35 µM

B3: human IRE1α luminal domain (hIRE1α LD, 24–443) Y161R (domain or fragment, UniProt O75460 24-443, looked up)
chain: STVTLPETLLFVSTLDGSLHAVSKRTGSIKWTLKEDPVLQVPTHVEEPAFLPDPNDGSLYTLGSKNNEGLTKLPFTIPELVQASPCRSSDGILYMGKKQDIWYVIDLLTGEKQQTLSSAFADSLCPSTSLLYLGRTERTITMYDTKTRELRWNATYFDYAASLPEDDVDYKMSHFVSNGDGLVVTVDSESGDVLWIQNYASPVVAFYVWQREGLRKVMHINVAVETLRYLTFMSGEVGRITKWKYPFPKETEAKSKLTPTLYVGKYSTSLYASPSMVHEGVAVVPRGSTLPLLEGPQTDGVTIGDKGECVITPSTDVKFDPGLKSKNKLNYLRNYWLLIGHHETPLSASTKMLERFPNNLPKHRENVIPADSEKKSFEEVINLVDQTSENAPTTVSRDVEEKPAHAPARPEAPVDSMLKD
notes: Inositol-requiring enzyme 1 alpha (IRE1α), human, luminal domain, residues 24-443, with Y161R introduced by overlap extension PCR; source: E. coli BL21DE3* RIPL, purified (Ni-NTA, HiTRAP-Q, Superdex 200); not shown: His6, N-terminal, cleaved
- K1/2 (apparent) [5]: 5.4 µM
